Key:
septoria leaf blotch = assay: Test Example 7: control test of septoria leaf blotch of wheat, field, wheat variety TRAPEZ; format: in vivo, Septoria tritici; details: for Degree of Disease Occurrence: flag leaves, 219 days after seeding
Procedure: (§1) Degree of Disease Occurrence=Σ(Index×Number of Leaves of Index)/(4×Number of Investigated Leaves)×100 (1)
Seed of wheat (variety: TRAPEZ) was used. On seed having a mass of 1 kg, 20 ml of suspension water containing 0.5 g or 5 g of dichlobentiazox or isotianil was sprayed. In Examples 16, 17, and 18, the seed treated with the chemical was stripe-sown with a ratio of 100 kg/ha. In contrast, in Comparative Example 17, seed which had not treated with dichlobentiazox or isotianil was sown in a field in the same manner, and a spray solution corresponding to that obtained by suspending 750 g of chlomthalonil (commercial FUNGISTOP was used, “FUNGISTOP” is a registered trademark) in 200 liters of water per 1 ha was sprayed on foliage of wheat 154 days and 184 days after seeding. The severity of disease occurrence of septoria leaf blotch in flag leaves of 25 stems was investigated 219 days after seeding according to the criteria in Table 1, and the degree of disease occurrence was calculated by the above calculation formula (1).

powdery mildew [1] = assay: Test Example 3: control test of wheat powdery mildew, cup in greenhouse, inoculated; format: in vivo, Blumeria graminis; design: key to Degree of Disease Occurrence: Σ(index×no. leaves of index)/(4×no. investigated leaves)×100; details: for Degree of Disease Occurrence: 19 days after seeding
Procedure: as §1
Seed having a mass of 1 kg of wheat (variety: Norin No. 61) was mixed into 100 ml of suspension water containing 5 g or 0.5 g of dichlobentiazox or isotianil and air-dried, and then, 12 seeds were sown in a plastic cup having a diameter of 6 cm containing river sand and managed in a greenhouse. The number of emerged seeds was investigated nine days after seeding, and an emergence rate was calculated (Examples 6 to 9). In Comparative Examples 6 to 9, 20 ml of suspension water of an active ingredient, which had been adjusted to have a concentration shown in Table 4, was sprayed in a frame of 45 cm×45 cm in which a pot of wheat seedlings was placed (corresponding to 1000 L/ha) 14 days after seeding. On day 14 after seeding, conidiospores of powdery mildew were sifted over leaves of wheat seedlings and inoculated onto the leaves (after the sprayed liquid was dried in the case of Comparative Examples), a lesion area ratio of powdery mildew in a first leaf was investigated 19 days after seeding according to the criteria in Table 1, and the degree of disease occurrence was calculated by the above calculation formula (1).

powdery mildew [2] = assay: Test Example 1: control test of wheat powdery mildew, field, wheat variety Haruyutaka; format: in vivo, Blumeria graminis; details: for Degree of Disease Occurrence / Disease Leaf Rate (%): flag leaves, 79 days after seeding
Procedure: Seed of wheat (variety: Haruyutaka) sterilized in advance with commercial Benlate T wettable powder 20 (“Benlate” is a registered trademark) was used. In Example 1, seed having a mass of 1 kg was mixed into 100 ml of suspension water containing 5 g of dichlobentiazox, air-dried, and then, stripe-sown in a field with a furrow width of 30 cm and a ratio of 163 kg/ha (417 seeds/m^2). In contrast, in Comparative Example 1, seed which had not treated with dichlobentiazox was sown in a field in the same manner, and a spray solution corresponding to that obtained by suspending 500 g of dichlobentiazox in 200 liters of water per 1 ha was sprayed on foliage of wheat three times, during an ear emergence period (63 days after seeding), a flowering period (70 days after seeding), and a flowering end period (77 days after seeding). Similarly, in place of 500 g of dichlobentiazox in Comparative Example 1, 250 g of azoxystrobin (commercial Amistar 20 flowable was used. “Amistar” is a registered trademark) was used in Comparative Example 2, and 125 g of propiconazole (commercial Tilt emulsifiable concentrate 25 was used, “Tilt” is a registered trademark) was used in Comparative Example 3. The presence or absence of disease occurrence and a lesion area ratio of powdery mildew in flag leaves of 30 stems were investigated 79 days after seeding according to the criteria in Table 1, and a disease leaf rate and the degree of disease occurrence were calculated by the following calculation formula (1).
as §1

[3] = system: wheat (variety: Norin No. 61); assay: Test Example 2: emergence rate of treated wheat seed; format: in vivo; details: 10 days after seeding
Procedure: Seed having a mass of 1 kg of wheat (variety: Norin No. 61) was mixed into 100 ml of suspension water containing 5 g or 0.5 g of dichlobentiazox or isotianil (commercial Routine flowable was used, “Routine” is a registered trademark) and air-dried, and then, 15 seeds were sown in a plastic pot of 9 cm×9 cm containing horticultural soil and managed in a greenhouse. The number of emerged seeds was investigated 10 days after seeding, and an emergence rate was calculated (Examples 2 to 5). On day 49 after seeding, conidiospores of powdery mildew were sifted over leaves of wheat seedlings and inoculated onto the leaves, a lesion area ratio of powdery mildew in a first leaf was investigated 59 days after seeding according to the criteria in Table 1, and the degree of disease occurrence was calculated by the above calculation formula (1).

powdery mildew [4] = assay: Test Example 4: control test of wheat powdery mildew, cup in greenhouse, inoculated; format: in vivo, Blumeria graminis; details: for Degree of Disease Occurrence: 22 days after seeding
Procedure: as §1
Seed having a mass of 1 kg of wheat (variety: Norin No. 61) was mixed into 100 ml of suspension water containing 0.5 g of the above compound (6) or compound (3) (synthesis was performed in accordance with a known method, formulated 10% wettable powder was used) and air-dried, and then, 12 seeds were sown in a plastic cup having a diameter of 6 cm containing river sand and managed in a greenhouse. The number of emerged seeds was investigated nine days after seeding, and an emergence rate was calculated (Examples 10 and 11). In Comparative Example 11 and Comparative Example 12, 20 ml of suspension water of an active ingredient, which had been adjusted to have a concentration shown in Table 5, was sprayed in a frame of 45 cm×45 cm in which a pot of wheat seedlings was placed (corresponding to 1000 L/ha) 15 days after seeding. On day 15 after seeding, conidiospores of powdery mildew were sifted over leaves of wheat seedlings and inoculated onto the leaves (after the sprayed liquid was dried in the case of Comparative Examples), a lesion area ratio of powdery mildew in a first leaf was investigated 22 days after seeding according to the criteria in Table 1, and the degree of disease occurrence was calculated by the above calculation formula (1).

[5] = Seed Treatment 0.5 g/Seed 1 kg (50 g/ha)
[6] = Seed Treatment 5 g/Seed 1 kg (500 g/ha)
[7] = Foliage Treatment, spray 500 g/ha three times
[8] = Seed Treatment 5 g/Seed 1 kg (815 g/ha)
[9] = Foliage Spray 50 ppm suspension water (50 g/ha) day 15, first leaf
[10] = Seed Treatment 0.5 g/Seed 1 kg (50 g/ha), inoculated day 15, first leaf

Compound | Degree of Disease Occurrence (septoria leaf blotch; [5]) | Degree of Disease Occurrence (septoria leaf blotch; [6]) | disease occurrence of septoria leaf blotch, seed treatment compared with foliage spraying of chlorothalonil (septoria leaf blotch; seed treatment) | Degree of Disease Occurrence (powdery mildew [1]; Foliage Treatment, spray 50 ppm suspension water (50 g/ha) day 14, first leaf) | Degree of Disease Occurrence (powdery mildew [1]; Foliage Treatment, spray 500 ppm suspension water (500 g/ha) day 14, first leaf) | Degree of Disease Occurrence (powdery mildew [1]; Seed Treatment 0.5 g/Seed 1 kg (50 g/ha), inoculated day 14, first leaf) | Degree of Disease Occurrence (powdery mildew [1]; Seed Treatment 5 g/Seed 1 kg (500 g/ha), inoculated day 14, first leaf) | disease occurrence of powdery mildew, seed treatment compared with spraying on foliage during a growing period (powdery mildew [1]; seed treatment) | disease occurrence of powdery mildew, seed treatment compared with foliage spraying of dichlobentiazox (Comparative Example 1) (powdery mildew [2]; Example 1, seed treatment) | Degree of Disease Occurrence (powdery mildew [2]; [7]) | Disease Leaf Rate (%) (powdery mildew [2]; [7]) | Degree of Disease Occurrence (powdery mildew [2]; [8]) | Disease Leaf Rate (%) (powdery mildew [2]; [8]) | disease occurrence of powdery mildew, seed treatment compared with foliage spraying of azoxystrobin and propiconazole (Comparative Examples 2 and 3) (powdery mildew [2]; seed treatment) | Emergence Rate (%) [3, 5] [%] | Emergence Rate (%) [3, 6] [%] | Degree of Disease Occurrence (powdery mildew [4]; [9]) | Degree of Disease Occurrence (powdery mildew [4]; [10]) | disease occurrence of powdery mildew, seed treatment compared with spraying on foliage during a growing period (powdery mildew [4])
O=S1(=O)N=C(OCc2snc(Cl)c2Cl)c2ccccc21 [Compound (1), Dichlobentiazox] | 2.8 | 1.9 | more suppressed | 52.8 | 44.4 | 10.1 | 9.0 | suppressed lower | more suppressed | 12.6 | 58.9 | 0.6 | 4.4 | more suppressed | 100 | 96 |  |  | 
OCc1snc(Cl)c1Cl [Compound (3)] |  |  |  |  |  |  |  |  |  |  |  |  |  |  |  |  | 62.1 | 17.0 | suppressed lower
O=C(O)c1snc(Cl)c1Cl [Compound (6)] |  |  |  |  |  |  |  |  |  |  |  |  |  |  |  |  | 22.2 | 16.3 | suppressed lower

Source: patent US20220000117A1, “METHOD FOR CONTROLLING DISEASES IN SMALL GRAIN CEREALS, SEED OF SMALL GRAIN CEREALS, AND METHOD FOR SUPPRESSING LODGING DAMAGE IN SMALL GRAIN CEREALS” (KUMIAI CHEMICAL INDUSTRY CO., LTD., priority 2019, published 2022)
